# US20080200454A1, “CARBON-LINKED TETRAHYDRO-PYRAZOLO-PYRIDINE MODULATORS OF CATHEPSIN S” (priority 2007, published 2008)
# Target: Recombinant human cathepsin S (CatS) (Homo sapiens, UniProt P25774)
# Assay: Recombinant human cathepsin S (CatS) inhibition assay, fluorogenic substrate Z-Valine-Valine-Arginine-AMC;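 also: Baculovirus-expressed CatS in pH 5.0 sodium acetate buffer with DTT and NaCl, fluorescence read each minute over 20 min, inhibition derived from rate slope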
# Sequence of Recombinant human cathepsin S (CatS) (P25774 115-331): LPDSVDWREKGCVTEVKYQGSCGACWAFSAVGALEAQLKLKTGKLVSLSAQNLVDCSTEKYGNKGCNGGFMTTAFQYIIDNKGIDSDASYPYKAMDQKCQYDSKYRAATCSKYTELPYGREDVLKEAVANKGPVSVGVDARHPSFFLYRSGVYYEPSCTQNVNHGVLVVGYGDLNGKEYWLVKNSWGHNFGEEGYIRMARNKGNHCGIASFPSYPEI
smiles,measurement,value
"NC(=O)C(=O)N1CCc2c(c(-c3ccc(Cl)c(C#Cc4ccc(CNCc5ccc(Cl)cc5)cc4)c3)nn2CCCN2CCN(c3ccccc3)CC2)C1 [Example 429, 2-{3-(4-Chloro-3-{[4-({[(4-chlorophenyl)methyl]amino}methyl)phenyl]ethynyl}phenyl)-1-[3-(4-phenylpiperazin-1-yl)propyl]-1,4,6,7-tetrahydro-5H-pyrazolo[4,3-c]pyridin-5-yl}-2-oxoacetamide]",IC50,20 nM
